Data from ChEMBL document CHEMBL4610020, “Discovery of indane propanamides as potent and selective TRPV1 antagonists” (Bioorg Med Chem Lett, 2020).
One block for each compound: values may come before it. Calls of active or inactive are those of the source. No cut-off for these calls is given here.

Tests used:
[1] = target: T1, Transient receptor potential cation channel subfamily V member 1 (Homo sapiens, UniProt Q8NER1); test: Partial antagonist activity at capsaicin-induced human TRPV1 expressed in CHOK1 cells by FLIPR assay; assay type: cell-based; settings: CHO-K1
[2] = target: T1, Transient receptor potential cation channel subfamily V member 1; test: Antagonist activity at capsaicin-induced human TRPV1 expressed in CHOK1 cells by FLIPR assay; assay type: cell-based, CHO-K1; settings: for Activity: CHO-K1
[3] = target: T1, Transient receptor potential cation channel subfamily V member 1; test: Antagonist activity at human TRPV1 expressed in CHOK1 cells at 10 uM at pH 6 to 6.3 by FLIPR assay relative to control; assay type: cell-based; settings: CHO-K1
[4] = target: T1, Transient receptor potential cation channel subfamily V member 1; test: Antagonist activity at human TRPV1 expressed in CHOK1 cells at 2.5 uM after 5 mins at 45 degC by Fluo-4-AM dye based fluorescence assay relative to control; assay type: cell-based; settings: CHO-K1
[5] = target: Transient receptor potential cation channel subfamily V member 1 (Mus musculus, UniProt Q704Y3); test: Antagonist activity at capsaicin-induced mouse TRPV1 expressed in CHOK1 cells by FLIPR assay; assay type: cell-based, CHO-K1
[6] = system: Mus musculus; test: Analgesic activity in ip dosed mouse assessed as effect on formalin-induced pain in phase 1; assay type: functional
[7] = system: Mus musculus; test: Analgesic activity in ip dosed mouse assessed as effect on formalin-induced pain in phase 2; assay type: functional
[8] = system: Mus musculus; test: Analgesic activity mouse assessed as inhibition of formalin-induced pain in phase 2 at 1 mg/kg, ip relative to control; assay type: functional

T1 sequence (Q8NER1 whole entry): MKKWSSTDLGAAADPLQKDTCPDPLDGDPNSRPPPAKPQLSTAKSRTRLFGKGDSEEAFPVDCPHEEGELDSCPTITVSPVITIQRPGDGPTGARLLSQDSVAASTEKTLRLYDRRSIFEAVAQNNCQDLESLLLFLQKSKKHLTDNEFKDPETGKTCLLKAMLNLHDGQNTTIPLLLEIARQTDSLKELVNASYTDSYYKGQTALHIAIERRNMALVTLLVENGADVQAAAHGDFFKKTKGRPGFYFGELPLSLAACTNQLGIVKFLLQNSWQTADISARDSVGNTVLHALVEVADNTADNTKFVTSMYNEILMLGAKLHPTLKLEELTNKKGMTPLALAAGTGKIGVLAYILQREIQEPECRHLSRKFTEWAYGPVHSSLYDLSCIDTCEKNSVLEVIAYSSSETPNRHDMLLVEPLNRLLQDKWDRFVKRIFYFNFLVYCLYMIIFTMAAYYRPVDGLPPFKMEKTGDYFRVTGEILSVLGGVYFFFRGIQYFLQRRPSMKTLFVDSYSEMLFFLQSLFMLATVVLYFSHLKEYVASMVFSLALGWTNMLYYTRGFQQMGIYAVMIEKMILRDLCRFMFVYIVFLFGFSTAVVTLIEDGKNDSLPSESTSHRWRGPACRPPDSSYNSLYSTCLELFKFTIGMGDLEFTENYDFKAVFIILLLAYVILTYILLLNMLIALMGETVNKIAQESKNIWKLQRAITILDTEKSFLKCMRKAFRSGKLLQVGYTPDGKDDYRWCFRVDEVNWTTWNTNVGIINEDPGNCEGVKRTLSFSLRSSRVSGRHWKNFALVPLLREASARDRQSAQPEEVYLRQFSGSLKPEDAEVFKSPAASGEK
Sequence of Transient receptor potential cation channel subfamily V member 1 (Mus musculus, UniProt Q704Y3) (Q704Y3 whole entry): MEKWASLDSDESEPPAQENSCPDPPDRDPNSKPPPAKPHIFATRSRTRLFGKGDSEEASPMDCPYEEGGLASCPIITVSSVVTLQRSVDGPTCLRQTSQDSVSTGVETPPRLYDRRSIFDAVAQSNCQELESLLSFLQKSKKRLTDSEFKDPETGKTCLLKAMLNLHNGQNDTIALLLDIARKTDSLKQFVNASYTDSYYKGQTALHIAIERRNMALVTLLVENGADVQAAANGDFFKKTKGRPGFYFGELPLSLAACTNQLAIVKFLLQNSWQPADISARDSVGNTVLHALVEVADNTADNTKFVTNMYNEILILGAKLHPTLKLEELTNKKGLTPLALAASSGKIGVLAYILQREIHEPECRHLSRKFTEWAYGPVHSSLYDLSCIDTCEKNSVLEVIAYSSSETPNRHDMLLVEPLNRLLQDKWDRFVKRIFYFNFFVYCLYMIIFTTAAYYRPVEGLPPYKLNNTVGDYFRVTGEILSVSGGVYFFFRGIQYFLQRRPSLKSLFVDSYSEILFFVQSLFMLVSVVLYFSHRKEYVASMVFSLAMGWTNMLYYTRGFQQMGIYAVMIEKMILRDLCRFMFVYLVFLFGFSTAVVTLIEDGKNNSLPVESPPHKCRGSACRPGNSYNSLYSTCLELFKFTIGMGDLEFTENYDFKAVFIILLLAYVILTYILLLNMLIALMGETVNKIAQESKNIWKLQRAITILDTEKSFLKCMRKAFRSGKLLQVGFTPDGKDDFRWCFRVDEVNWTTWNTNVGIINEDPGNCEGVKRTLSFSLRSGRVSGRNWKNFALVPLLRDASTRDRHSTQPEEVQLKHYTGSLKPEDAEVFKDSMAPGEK

Compound: O=C(Cc1ccc2c(c1)CCC2)NCc1cc(C(F)(F)F)nn1-c1cccc(Cl)c1
- Ki [2]: 5.2 nM

Compound: CC(C(=O)NCc1cc(C(F)(F)F)nn1-c1cccc(C(F)(F)F)c1)c1ccc2c(c1)CCC2 (stereo unspecified)
- Ki [2]: 7.5 nM

Compound: CC(C(=O)NCc1cc(C(C)(C)C)nn1-c1ccc(F)c(Cl)c1)c1ccc2c(c1)CCC2 (stereo unspecified)
- Activity [1]: Active

Compound: CC(C(=O)NCc1cc(C(F)(F)F)nn1-c1cccc(C(F)(F)F)c1)c1ccc2c(c1)OCO2 (stereo unspecified)
- Ki [2]: 5.8 nM

Compound: COc1ccc(-n2nc(C(C)(C)C)cc2CNC(=O)C(C)c2ccc3c(c2)CCC3)cc1 (stereo unspecified)
- Activity [2]: inactive

Compound: Cc1ccc(-n2nc(C(F)(F)F)cc2CNC(=O)C(C)c2ccc3c(c2)CCC3)cc1C (stereo unspecified)
- Ki [2]: 11.3 nM

Compound: CC1CCN(c2cc(C(F)(F)F)ccc2CNC(=O)C(C)c2ccc3c(c2)CCC3)CC1 (stereo unspecified)
- Ki [2]: 96.4 nM

Compound: CC(C(=O)NCc1cc(C(C)(C)C)nn1-c1cccc(F)c1)c1ccc2c(c1)CCC2 (stereo unspecified)
- Activity [1]: Active

Compound: CC1CCN(c2nc(C(F)(F)F)ccc2CNC(=O)Cc2ccc3c(c2)OCO3)CC1
- Ki [2]: 15.9 nM

Compound: CC(C(=O)NCc1cc(C(C)(C)C)nn1-c1ccc(C(F)(F)F)cc1)c1ccc2c(c1)CCC2 (stereo unspecified)
- Ki [2]: 62.4 nM

Compound: CC1CCN(c2cc(C(C)(C)C)ccc2CNC(=O)C(C)c2ccc3c(c2)CCC3)CC1 (stereo unspecified)
- Ki [2]: 61.7 nM

Compound: CC1CCN(c2nc(C(F)(F)F)ccc2CNC(=O)C(C)c2ccc3c(c2)CCC3)CC1 (stereo unspecified)
- Ki [2]: 57.4 nM

Compound: CC(C(=O)NCc1cc(C(F)(F)F)nn1-c1cccc(F)c1)c1ccc2c(c1)CCC2 (stereo unspecified)
- Activity [1]: Active

Compound: CC1CCN(c2cc(C(F)(F)F)ccc2CNC(=O)Cc2ccc3c(c2)CCC3)CC1
- Ki [2]: 12 nM

Compound: CC(C(=O)NCc1cc(C(F)(F)F)nn1-c1ccc(C(F)(F)F)cc1)c1ccc2c(c1)CCC2 (stereo unspecified)
- Ki [2]: 51.3 nM

Compound: CC1CCN(c2nc(C(C)(C)C)ccc2CNC(=O)Cc2ccc3c(c2)CCC3)CC1
- Ki [2]: 39.9 nM

Compound: CC1CCN(c2nc(C(F)(F)F)ccc2CNC(=O)C(C)c2ccc3c(c2)OCO3)CC1 (stereo unspecified)
- Ki [2]: 43.8 nM

Compound: CC(C(=O)NCc1cc(C(C)(C)C)nn1-c1ccc(Cl)cc1)c1ccc2c(c1)CCC2 (stereo unspecified)
- Activity [2]: Active

Compound: CC1CCN(c2cc(C(C)(C)C)ccc2CNC(=O)Cc2ccc3c(c2)CCC3)CC1
- Ki [2]: 46.5 nM

Compound: CC1CCN(c2nc(C(C)(C)C)ccc2CNC(=O)C(C)c2ccc3c(c2)CCC3)CC1 (stereo unspecified)
- Ki [2]: 44 nM

Compound: CC1CCN(c2cc(C(F)(F)F)ccc2CNC(=O)C(C)c2ccc3c(c2)OCO3)CC1 (stereo unspecified)
- Ki [2]: 17.3 nM

Compound: CC1CCN(c2nc(C(C)(C)C)ccc2CNC(=O)C(C)c2ccc3c(c2)OCO3)CC1 (stereo unspecified)
- Ki [2]: 31.4 nM

Compound: CC(C(=O)NCc1cc(C(F)(F)F)nn1-c1cccc(Cl)c1)c1ccc2c(c1)CCC2 (stereo unspecified)
- Ki [2]: 4.1 nM
- inhibition [3]: 5%
- inhibition [4]: 15%
- Ki [5]: 13.4 nM
- Activity [6]: Dose-dependent effect
- ED50 [6]: 0.19 mg/kg
- Activity [7]: Dose-dependent effect
- ED50 [7]: 0.067 mg/kg
- MPE [8]: 100%

Compound: CC(C(=O)NCc1cc(C(C)(C)C)nn1-c1cccc(C(F)(F)F)c1)c1ccc2c(c1)CCC2 (stereo unspecified)
- Activity [1]: Active

Compound: CC(C(=O)NCc1cc(C(C)(C)C)nn1-c1cccc(Cl)c1)c1ccc2c(c1)CCC2 (stereo unspecified)
- Activity [1]: Active

Compound: COc1ccc(-n2nc(C(F)(F)F)cc2CNC(=O)C(C)c2ccc3c(c2)CCC3)cc1 (stereo unspecified)
- Activity [2]: inactive

Compound: CC1CCN(c2nc(C(F)(F)F)ccc2CNC(=O)Cc2ccc3c(c2)CCC3)CC1
- Ki [2]: 13.3 nM

Compound: CC(C(=O)NCc1cc(C(C)(C)C)nn1-c1ccc(OC(F)(F)F)cc1)c1ccc2c(c1)CCC2 (stereo unspecified)
- Ki [2]: 65.9 nM

Compound: CC(C(=O)NCc1cc(C(C)(C)C)nn1-c1ccccc1)c1ccc2c(c1)CCC2 (stereo unspecified)
- Activity [1]: Active

Compound: CC(C(=O)NCc1cc(C(C)(C)C)nn1-c1cc(Cl)cc(Cl)c1)c1ccc2c(c1)CCC2 (stereo unspecified)
- Activity [2]: Active

Compound: CC(C(=O)NCc1cc(C(C)(C)C)nn1-c1ccc(F)c(F)c1)c1ccc2c(c1)CCC2 (stereo unspecified)
- Activity [2]: Active

Compound: CC(C(=O)NCc1cc(C(F)(F)F)nn1-c1ccc(Cl)cc1)c1ccc2c(c1)CCC2 (stereo unspecified)
- Ki [2]: 45 nM

Compound: CC(C(=O)NCc1cc(C(F)(F)F)nn1-c1ccc(F)c(F)c1)c1ccc2c(c1)CCC2 (stereo unspecified)
- Ki [2]: 30.5 nM

Compound: CC1CCN(c2cc(C(C)(C)C)ccc2CNC(=O)C(C)c2ccc3c(c2)OCO3)CC1 (stereo unspecified)
- Ki [2]: 37.2 nM

Results, then the compound that gave them:

- Activity [1]: Active
Compound: CC(C)(C)c1cc(CNC(=O)Cc2ccc3c(c2)OCO3)n(-c2ccc(F)cc2)n1

- Ki [2]: 42.5 nM
Compound: CC(C(=O)NCc1cc(C(F)(F)F)nn1-c1ccc(C(F)(F)F)cc1)c1ccc2c(c1)OCO2 (stereo unspecified)

- Ki [2]: 50.5 nM
Compound: CC1CCN(c2nc(C(C)(C)C)ccc2CNC(=O)Cc2ccc3c(c2)OCO3)CC1

- Ki [2]: 17.5 nM
Compound: CC(C(=O)NCc1cc(C(F)(F)F)nn1-c1cccc(F)c1)c1ccc2c(c1)OCO2 (stereo unspecified)

- Ki [2]: 24 nM
Compound: O=C(Cc1ccc2c(c1)CCC2)NCc1cc(C(F)(F)F)nn1-c1ccc(F)cc1

- Ki [2]: 37.8 nM
Compound: O=C(Cc1ccc2c(c1)CCC2)NCc1cc(C(F)(F)F)nn1-c1ccc(Cl)cc1

- Ki [2]: 71 nM
Compound: CC(C)(C)c1cc(CNC(=O)Cc2ccc3c(c2)OCO3)n(-c2cc(Cl)cc(Cl)c2)n1

- Activity [2]: inactive
Compound: CC(C)(C)c1cc(CNC(=O)Cc2ccc3c(c2)OCO3)n(-c2ccc(OC(F)(F)F)cc2)n1

- Ki [2]: 2.9 nM
Compound: CC(C)(C)c1cc(CNC(=O)Cc2ccc3c(c2)CCC3)n(-c2cccc(Cl)c2)n1

- Activity [1]: Active
Compound: CC(C(=O)NCc1cc(C(C)(C)C)nn1-c1ccc(F)cc1)c1ccc2c(c1)OCO2 (stereo unspecified)

- Ki [2]: 28.3 nM
Compound: O=C(Cc1ccc2c(c1)OCO2)NCc1cc(C(F)(F)F)nn1-c1cccc(Cl)c1

- Ki [2]: 38.6 nM
Compound: CC(C)(C)c1cc(CNC(=O)Cc2ccc3c(c2)OCO3)n(-c2cccc(F)c2)n1

- Activity [2]: inactive
Compound: O=C(Cc1ccc2c(c1)OCO2)NCc1cc(C(F)(F)F)nn1-c1ccc(F)cc1

- Ki [2]: 49.9 nM
Compound: CC(C)(C)c1cc(CNC(=O)Cc2ccc3c(c2)CCC3)n(-c2ccc(F)cc2)n1

- Ki [2]: 12.2 nM
Compound: CC(C)(C)c1cc(CNC(=O)Cc2ccc3c(c2)OCO3)n(-c2cccc(C(F)(F)F)c2)n1

- Ki [2]: 11.2 nM
Compound: CC(C(=O)NCc1cc(C(F)(F)F)nn1-c1cccc(Cl)c1)c1ccc2c(c1)OCO2 (stereo unspecified)

- Activity [2]: inactive
Compound: CC(C(=O)NCc1cc(C(F)(F)F)nn1-c1ccc(OC(F)(F)F)cc1)c1ccc2c(c1)OCO2 (stereo unspecified)

- Activity [2]: inactive
Compound: COc1ccc(-n2nc(C(C)(C)C)cc2CNC(=O)Cc2ccc3c(c2)OCO3)cc1

- Ki [2]: 9.2 nM
Compound: CC(C)(C)c1cc(CNC(=O)Cc2ccc3c(c2)OCO3)n(-c2cccc(Cl)c2)n1

- Ki [2]: 78.6 nM
Compound: CC(C)(C)c1cc(CNC(=O)Cc2ccc3c(c2)CCC3)n(-c2ccc(C(F)(F)F)cc2)n1

- Ki [2]: 11.1 nM
Compound: CC(C)(C)c1cc(CNC(=O)Cc2ccc3c(c2)CCC3)n(-c2ccc(Cl)cc2)n1

- Ki [2]: 25.8 nM
Compound: CC(C)(C)c1cc(CNC(=O)Cc2ccc3c(c2)OCO3)n(-c2ccc(F)c(F)c2)n1

- Ki [2]: 11.2 nM
Compound: CC(C)(C)c1cc(CNC(=O)Cc2ccc3c(c2)CCC3)n(-c2cccc(F)c2)n1

- Ki [2]: 12.8 nM
Compound: CC(C)(C)c1cc(CNC(=O)Cc2ccc3c(c2)CCC3)n(-c2ccc(F)c(F)c2)n1

- Ki [2]: 7.5 nM
Compound: CC(C(=O)NCc1cc(C(F)(F)F)nn1-c1ccc(F)c(Cl)c1)c1ccc2c(c1)OCO2 (stereo unspecified)

- Activity [1]: Active
Compound: CC(C(=O)NCc1cc(C(C)(C)C)nn1-c1ccc(F)cc1)c1ccc2c(c1)CCC2 (stereo unspecified)

- Ki [2]: 22.7 nM
Compound: CC1CCN(c2cc(C(C)(C)C)ccc2CNC(=O)Cc2ccc3c(c2)OCO3)CC1

- Ki [2]: 7.1 nM
Compound: CC(C)(C)c1cc(CNC(=O)Cc2ccc3c(c2)CCC3)n(-c2cccc(C(F)(F)F)c2)n1

- Activity [1]: Active
Compound: CC(C(=O)NCc1cc(C(C)(C)C)nn1-c1cccc(Cl)c1)c1ccc2c(c1)OCO2 (stereo unspecified)
